Source: patent US20180074045A1, “SYSTEM AND METHOD FOR HIGH THROUGHPUT SCREENING OF CANCER CELLS” (CANNABICS PHARMACEUTICALS INC, priority 2015, published 2018)

Tested on: U87MG glioblastoma cells
Assay: Cell viability imaging, extracts with various THC to CBD ratios
Format: cell-based, human
Conditions: extracts with various THC to CBD ratio, adjusted to 5 μM THC, 24 hours, 96-well; FIG. 6
Description: Cells were harvested three days before exposure and seeded (about 50,000-200,000 cells/well) into a 24-well microplate. The medium was replaced in respective culture medium containing 0.5% FBS, and vehicle (DMSO) or cannabis extracts (1-10 μg/ml) were added to the medium for 24-48 hours in duplicates.
The effect of cannabinoid compounds on cell viability was measured using high-content screening analysis. For example, differentiation of subpopulations of cells within the same well was analysed by distinguishing: live versus necrotic cells, early apoptotic cells and late apoptotic cells.
Cells were imaged in ImageXpress micro (see FIG. 2), and analyzed using MetaXpress and the Cell Cycle module.
Reference is now made to FIG. 6 showing images of glioblastoma cell lines treated with selected cannabis extracts comprising various THC to CBD ratio. In this study, 10,000 U87MG glioblastoma cells were plated into a 96-well microplate and treated with vehicle (DMSO) or cannabis extracts. It is noted that the extracts were delectated to reach 5 μM THC. Cells were imaged after 24 hours using the ImageXpress micro.

Structure (SMILES): C=C(C)[C@@H]1CCC(C)=C[C@H]1c1c(O)cc(CCCCC)cc1O [CBD, cannabidiol]
- U87MG glioblastoma cells viability: plays a role in reducing U87MG glioblastoma cells viability
